Data set [1] is described as follows: MTD of liposomal and free naphthalimides and azonifides. The format is in vivo.
For data set [2], the system named is HT-29 human colorectal adenocarcinoma cells. The data set is described as follows: In vitro IC50 cytotoxicity, Alamar Blue cell viability. The format is cell-based. The method, then:
HT-29 human colorectal adenocarcinoma cells (#HTB-38, ATCC, Manassas, Va.) were plated in 96-well tissue culture plates (Costar #3595) at 5×10^3 cells/well in a final volume of 0.1 mL of 10% fetal bovine serum in McCoy's 5A (#10-050-CV, Mediatech, Manassas, Va.). Defined fetal bovine serum was obtained from HyClone (#SH30070.03, lot #AWB96395, Logan, Utah). Plates containing cells were incubated at 37° C. in 5% CO2 in humidified air for 24 hr. The selected initial cell plating density was chosen based upon the approximate doubling time of the human tumor cell line.
Test compounds were diluted from stock solutions to 2.2 mmol/L in Dulbecco's modified phosphate-buffered saline (DPBS; Mediatech, Inc., lot #21031339, Manassas, Va.), then serially diluted three-fold in DPBS to generate a nine point dose-response curve. Ten microliters of diluted test compounds were added to wells in triplicate to achieve the desired final concentration of test compounds. Plates containing cells with and without added test compounds were returned to incubation as described above.
For the two hour cytotoxicity assessment, medium was removed after two hours of drug exposure and replaced with 0.1 mL/well culture medium, and cells were incubated for an additional 70 hours as above.
For the twenty-four hour cytotoxicity assessment, medium was removed after one day of drug exposure and replaced with 0.1 mL/well culture medium, and cells were returned to incubation for an additional 48 hours. Subsequently, cell viability was assessed using Alamar Blue. For this purpose, media was removed by pipetting from cultured cells and replaced with 0.1 mL/well of 10% (v/v) Alamar Blue (#BUFO12A, AbD Serotec, Raleigh, N.C.) diluted in the appropriate cell culture media. Plates were then returned to incubation as before for appropriate color development, between two to four hours.
Fluorescence of individual plate wells was measured at 545 nm/590 nm (excitation/emission) using a BioTek Synergy4 microplate reader. Cell viability was calculated as a percentage of measured fluorescence obtained relative to cells treated with culture media alone. IC50 values (μmol/L) were determined with the mean of triplicate values using nonlinear regression analysis and a four-parameter logistic model.
In general terms: The colour change of resazurin is a common sign of viable cells or microbes.

The conditions of data set [3]: phase I studies / clinical development, background; cited from earlier work.
The nature of the next data set: in vivo. As to conditions: rat, plasma, 20 mg/kg.
Data set [4] in a line: Single-dose muscle myopathy study, 14-day observation. Type of data set: in vivo. As to conditions: for Myopathy / Survival: rats, 14 days. The text has this: Rats that loss greater than 20% of its body weight were dropped from the study. […]
The mark [5] stands for this setting: mouse, in vivo, male athymic nude mice, read-out: MTD.
Where [6] appears, read: Homo sapiens, 2 h, Table 7, read-out: 2 hr Tx (IC50).
[7] abbreviates: Homo sapiens, 24 h, Table 7, read-out: 24 hr Tx (IC50).
The mark [8] stands for this setting: Homo sapiens, 48 h, Table 7, read-out: 48 hr Tx (IC50).
Where [9] appears, read: Table 7, read-out: 2 hr Tx (IC50).
[10] abbreviates: Table 7, read-out: 24 hr Tx (IC50).
Setting [11] is: Table 7, read-out: 72 hr Tx (IC50).

Read-outs that look alike come from different tables or passages of the source.

In general, IC50 refers to the point on the concentration scale where inhibition reaches its midpoint. For the molecule `CN(C)CCN1C(=O)c2cccc3cc(N)cc(c23)C1=O` [Amonafide Free, Amonafide], in data set [1] (setting [5]), the MTD came out at 45 mg/kg. In addition, the figures for the IC50 in data set [2] (setting [6]), in data set [2] (setting [7]) and in data set [2] (setting [8]) were 90300 nM, 34200 nM and 15700 nM, respectively. Also, the “dose-limiting toxicity in clinical study” value in data set [3] is “high variability and dose-limiting toxicity”.
`CN(C)CCN1C(=O)c2cccc3cc4ccccc4c(c23)C1=O` [Azonifide Free, Azonifide]: in data set [1] (setting [5]), the MTD worked out at 10 mg/kg. Moreover, the IC50 in data set [2] (setting [6]) amounted to 1170 nM; in data set [2] (setting [7]), 256 nM; in data set [2] (setting [8]) it was 283 nM; in data set [2] (Homo sapiens, 72 h, Table 7, read-out: 72 hr Tx (IC50)), 386 nM.
In the case of `C[C@H](CNCCNC[C@@H](C)N1C(=O)c2cccc3cc([N+](=O)[O-])cc(c23)C1=O)N1C(=O)c2cccc3cc([N+](=O)[O-])cc(c23)C1=O` [DMP-840], the “dose-limiting toxicity in clinical study” value in data set [3] is reported as “dose limiting toxicity”.
As usually defined, the AUC is concentration integrated over time. Read a high AUC as more exposure. For orientation: Cmax means the highest concentration seen after dosing. By half-life is commonly meant the time in which the quantity being followed falls by half. Read a low half-life as fast loss. Take `O=C1c2cccc3cccc(c23)C(=O)N1CCNCCCNCCN1C(=O)c2cccc3cccc(c23)C1=O` [Free Elinafide, Elinafide]: the “dose-limiting toxicity in clinical study” value in data set [3] was “cumulative dose-limiting neuro-muscular toxicity and myelosuppression”. In “in vivo”, this molecule showed an AUC of 4.7 ng·h/mL, a Cmax of 1.4 ng/mL, a Vd of 204000 and a half-life of 53.5 h. Moreover, the “muscle myopathy in treated rats” value in data set [4] (administration at MTD, single dose) is reported as “significant muscle myopathy”. In addition, in data set [4] (25 mg/kg, F), the Myopathy was 1/3 and the Survival was 3/3. In data set [4] (25 mg/kg, M), the Myopathy is listed as 2/3 and the Survival is 3/3. For the same molecule, in data set [4] (35 mg/kg, F), the Myopathy was 3/3 and the Survival is 3/3. Moreover, the Survival in data set [4] (35 mg/kg, M) was 0/3.
With `CN(C)CCN1C(=O)c2cccc3cc(NC(N)=O)cc(c23)C1=O` [UNBS-5162 Free, UNBS-5162], in data set [1] (male athymic nude mice), the MTD is recorded as 45 mg/kg. Also, the results for the IC50 in data set [2] (setting [9]), in data set [2] (setting [10]) and in data set [2] (setting [11]) were greater than 100000 nM, 24800 nM and 31300 nM, respectively. In addition, the “dose-limiting toxicity in clinical study” value in data set [3] is recorded as “dose limiting toxicity”.
In the case of `CN(C)CCN1C(=O)c2cccc3cc([N+](=O)[O-])cc(c23)C1=O` [mitonafide], the “dose-limiting toxicity in clinical study” value in data set [3] is “dose limiting toxicity”.
Ethonafide [Ethonafide Free] gave an MTD in data set [1] (mouse, in vivo) of 15 mg/kg. The IC50 in data set [2] (setting [9]) came out at 751 nM; in data set [2] (setting [10]) it was 189 nM; in data set [2] (setting [11]), 388 nM.
